In patent US10604552B2, “Generation of novel metabolite-responsive transcription regulator biosensors” (NORTHWESTERN UNIVERSITY, priority 2016, dated 2020):

System: TOP10 Escherichia coli cells
Format: cell-based
Settings: 100 mM maltose; SP biosensor with No Sites or Go66 reporter
Description: All experiments were conducted in TOP10 Escherichia coli cells (F-mcrA Δ(mrr-hsdRMS-mcrBC) φ80lacZAM15 ΔlacX74 nupG recAl araD139 Δ(ara-leu)7697 galE15 galK16 rpsL(Str^R) endA1 λ^−) (Life Technologies). Cells were maintained in Lysogeny Broth (LB) Lennox formulation (10 g/L of tryptone, 5 g/L of yeast extract, 5 g/L of NaCl) supplemented with appropriate antibiotics (Ampicillin 100 μg/mL or Kanamycin 50 μg/mL). All experimental analysis was conducted in M9 minimal media (1×M9 salts, 0.2% Casamino Acids, 2 mM MgSO^4, 0.1 mM CaCl^2, 1 mM Thiamine HCl) containing glycerol (0.4%) as the primary carbon source. 1% arabinose and variable amounts of maltose monohydrate and isopropyl β-D-1-thiogalactopyranoside (IPTG) were added as indicated. M9 medium containing both Ampicillin and Kanamycin was used to maintain the strains that contained both a reporter plasmid and a biosensor plasmid.
Cultures were inoculated from single colonies into 2 mL of M9 media and grown overnight to stationary phase. Overnight cultures were diluted 1:20 and grown into exponential phase (OD600˜0.5). […] Plates with lids were incubated and shaken in a continuous double orbital pattern at 548 cpm (2 mm) inside a BioTek Synergy H1 plate reader for 10 h with GFP, mCherry, and OD600 measurements taken every 15 min. […]

In the case of `OC[C@H]1O[C@H](O[C@H]2[C@H](O)[C@@H](O)C(O)O[C@@H]2CO)[C@H](O)[C@@H](O)[C@@H]1O` (mixture of isomers) [maltose], the “impact on cell growth” value is reported as “did not substantially impact cell growth”.
